Results reported in paper doi:10.1101/2022.10.01.510427v1 (biorxiv, 2022).

Biological target: T1, Gaussia luciferase (GLuc) (Gaussia princeps (in: crustaceans), UniProt Q9BLZ2)
T1 sequence (Q9BLZ2 18-185): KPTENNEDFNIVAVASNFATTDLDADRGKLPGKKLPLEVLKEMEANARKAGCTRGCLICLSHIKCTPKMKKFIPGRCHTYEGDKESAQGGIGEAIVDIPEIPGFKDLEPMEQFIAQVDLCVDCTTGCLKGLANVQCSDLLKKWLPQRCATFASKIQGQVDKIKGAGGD
Assay: bioluminescence inhibition assay
Format: biochemical

IC50: 10 to 100 µM
Compound: O=c1n(Cc2ccc(O)cc2)nc2c(Cc3ccccc3)nc(-c3ccc(O)cc3)cn12 [Aza-CTZ]
